# Several values for one entry are separate records, joined by “and”; a condition that tells them apart may be missing. Identical values can stand only once. Like-named read-outs stand apart in the source and are kept apart here.
# Legend:
# [1] = assay type: in vivo, CD1 mice
# Description: FIG. 12. Evaluation of PhAc-ALGP-Dox leucopenic effect in comparison with Doxorubicin. CD1 mice received twice daily intraperitoneal injections of PhAc-ALGP-Dox 35 μmol/kg (●) or of Doxorubicin 3.5 μmol/kg (▪) for five consecutive days. The mice body weight evolution was recorded (A). Blood was collected from the tail vein in heparinised Microvettes tubes (Starsted) at day 4, 11 and 15 after treatment initiation. Peripheral white blood cells (WBC) were counted using the SCILvet abc hematologic analyzer (B). The increase or decrease in WBC is expressed as a percentage of WBC on day 0 (100%) for each mouse. The curves show evolution of the mean percentages.
# The leucopenic effects of PhAc-ALGP-Dox (35 μmol/kg ip) and of Doxorubicin (3.5 μmol/kg ip) were compared in two independent experiments. CD1 mice received two daily intraperitoneal injections of drugs for five consecutive days (total 10 injections/mouse; 2×5 animals per group). The mice body weight evolution was recorded. Blood was collected from the tail vein in EDTA-coated Microvettes tubes (Starsted) at day 4, 11 and 15 after treatment initiation. White blood cells (WBC) were counted using the SCILvet abc hematologic analyzer. The increase or decrease in WBC was expressed as a percentage of WBC on day 0 (100%) for each mouse.
# [2] = tested on: UZLX-STS3 dedifferentiated liposarcoma xenograft
# Excerpt: FIG. 16. Effect of PhAc-ALGP on a UZLX-STS3 xenograft model. UZLX-STS3 is a tissue xenograft derived from a patient diagnosed with dedifferentiated liposarcoma (DDLPS).
# A total of 24 mice were bilaterally transplanted with UZLX-STS3 (tissue xenografts of passage 10). Animals were randomly assigned to three different groups: a control group (saline; -●-); A PhAc-ALGP-doxorubicin group (cumulative dose 1.20 mmol/kg; -▪-) and a doxorubicin group (cumulative dose 0.03 mmol/kg; -▴-). The drugs were administered intraperitoneally during 7 days by continuous release via an Alzet® osmotic pump, with delivery rate of 0.5 μl/h over 7 days. The experiment lasted 21 days (7 days of treatment+14 days of observation). Tumor volume and mouse body weight were evaluated at baseline and subsequently three times per week until the end of each experiment. After 21 days mice were sacrificed. Tumor volume is recorded 3× weekly by 3-dimensional caliper measurement. Data are presented as the average of the relative tumor volumes per group±standard deviation.
# The comparison between the tumor volumes on day zero and the volumes on the last day of the experiments was done by Wilcoxon's matched paired test. The comparisons between different groups were performed using the Mann-Whitney U test (relative tumor volumes, histologic assessment). […] The […] software (StatSoft, version 12.0) was used for all the calculations.
# FIG. 18. Data are presented as the average of the white blood cell count of mice in every group±standard deviation. The dashed lines mark the reference values for nu/nu NMRI mouse strain. PhAc-ALGP-doxorubicin (-▪-); Dox (-▴-); and saline (-●-). Total white blood cell count was determined using the CELL-DYN 3500 multiparameter automated hematology analyzer with optimization for murine blood parameters (Abott Diagnostics, Division, Ill., USA)
# FIG. 19. Data are presented as the average of the neutrophil count of mice in every group±standard deviation. The dashed lines mark the reference values for nu/nu NMRI mouse strain. PhAc-ALGP-doxorubicin (-▪-); Dox (-▴-); and saline (-●-). Neutrophil count was determined using the CELL-DYN 3500 multiparameter automated hematology analyzer with optimization for murine blood parameters (Abott Diagnostics, Division, Ill., USA)
# [3] = tested on: Cor.At® cells (mouse embryonic stem cell derived cardiomyocytes); assay: In vitro cytotoxicity on Cor.At cardiomyocytes (neutral red uptake); assay type: cell-based; conditions: 48 h
# Description: (§1) FIG. 5. In vitro cellular toxicity of PhAc-ALGP-Dox and Doxorubicin on Cor.At® cells (mouse embryonic stem cell derived cardiomyocytes). As non-specific control, the test was also performed on inactivated mouse embryonic fibroblasts (MEF). Cells were cultured for 48 h in the presence of drugs and a neutral red uptake test was performed to determine cell viability. Results represent the cytotoxicity curves. The IC50 values were calculated from the cytotoxicity curves using the Prism GraphPad software 5.0.
# (§2) The in vitro cardiotoxicity test was carried out in a relevant and predictive in vitro model for cardiac safety screening in early lead optimization using mouse embryonic stem cell derived cardiomyocytes (Cor.At®, Axiogenesis (Germany)). Cor.At® cardiomyocytes provide a standardized, homogenous and reproducible cell system for the in vitro classification of a compound's cardio-cytotoxic potential. After incubation with test compounds, the neutral red uptake test was used to determine effects which directly affect the viability and integrity of cardiac cells when compared to a non-specific reference cell type, e.g. mouse fibroblasts (MEF).
# [4] = Pharmacokinetics and heart tissue quantification after single iv bolus
# Description: Time evolution of plasma concentration (A, B) and of cardiac tissue concentration (C, D) of Doxorubicin or PhAc-ALGP-Dox and its metabolites after i.v. bolus injection to OF-1 female wild type mice at the dose of 86.2 μmol/kg. Results represent the mean concentration±SD (n=3).
# Pharmacokinetic tissue distribution studies were performed using OF-1 mice. […] At different time points after drug administration (5 min, 30 min, 1 h, 4 h, 7 h, 16 h and 24 h) 3 mice per group were sacrificed by cervical dislocation and blood and heart tissue were collected. Hearts were incised and rinsed carefully in phosphate buffer saline (to eliminate blood in the cardiac cavities), dried on paper and frozen in liquid nitrogen. They were stored until analysis. Blood samples were centrifuged (10 min, 2000 g, 4° C.) to separate the plasma fraction, which was stored for analysis. The hearts were homogenized with an Ultraturrax homogenizer in 1.5 mL water. The protein concentration was measured using the microBCA protein assay (Pierce). The drug tissue quantification was made by HPLC after extraction: 150 μL of acetonitrile was added to the 50 μL samples. Samples were vortexed and centrifuged for 10 min at 13 000 rpm at room temperature. Supernatant was collected. Samples were buffered by addition of 200 mM formiate buffer pH 4.5 (1 V sample supernatant+3 V buffer) before HPLC analysis (fluo detection ex=235 nm em=560 nm).
# [5] = tested on: LoVo colon carcinoma human xenografts; assay: Efficacy after repeated ip injections (2Q1D5), LoVo xenograft; assay type: in vivo, NMRI nude mice; conditions: for TGD: 190 to 1,000 mm^3
# Description: FIG. 9. Efficacy study of PhAc-ALGP-Dox in comparison with free Doxorubicin in NMRI nude mice bearing LoVo colon carcinoma human xenografts. Drugs or controls were administered by the i.p. route twice a day for five consecutive days (arrows). The mice receiving a constant volume (10 μL/g) of either saline (-●-) or of the different dosing solutions: PhAc-ALGP-Dox 25 μmol/kg (*), 35 μmol/kg (◯) and 50 μmol/kg (+); Dox 0.5 μmol/kg (▪), 1 μmol/kg (▴) and 2 μmol/kg (×).
# The efficacy of PhAc-ALGP-Dox was assessed using athymic mice (nude/nude NMRI) carrying ectopic xenograft of human LoVo colon carcinoma or of MX-1 mammary carcinoma in comparison with free Doxorubicin. Tumors were established by a subcutaneous implantation of cells (10^7 cells) in the right flank of 6 weeks old female NMRI nude mice (Harlan). Treatments were administered when the tumors reached a size of 150-200 mm^3 (measured using a caliper and calculated with the following formula: […]). Animals were randomly assigned to groups of 4 to-6 animals. […] Compounds were delivered by bolus intraperitoneal injection (ip) at 10 μl/g. During the course of the experiment, clinical signs, body weight and tumor volume were controlled twice a week. Results are presented as the evolution of mean tumor volume as a function of time. Optimal T/C (ratio of mean tumor volume of treated versus control mice) values and TGD (tumor growth delay in reaching 1000 mm^3) were used as a measure of treatment efficacy. […] A statistical analysis was performed at day 22 using the Mann Whitney t test of the Graph Pad Prism 5.0 software.
# [6] = tested on: mouse embryonic fibroblasts (MEF); assay: In vitro cytotoxicity on control fibroblasts (neutral red uptake); assay type: cell-based; conditions: 48 h
# Description: as §1, §2
structure (smiles),measurement,setting,value
"COc1cccc2c1C(=O)c1c(O)c3c(c(O)c1C2=O)C[C@@](O)(C(=O)CO)C[C@@H]3O[C@H]1C[C@H](N)[C@H](O)[C@H](C)O1 [Doxorubicin, reference compound]",mortality,"[1]; 3.5 μmol/kg ip 2Q1D5, 2×5 animals",one mouse was found dead at day 11 as well as 3 mice at day 15
same,relative tumor volume at day 21,"[2]; ip, 30 umol/kg",246%
same,viability of Cor.At cardiomyocytes,[3]; 0.2 μg/ml,67%
same,toxic effect on Cor.At cardiomyocytes (in words),[3]; 20 μg/ml and 2 μg/ml,severe toxic effect
same,drug plasma concentration eliminated in the first five minutes,[4]; i.v. bolus 86.2 μmol/kg,About 90%
same,TGD,[5]; 0.5 μmol/kg ip 2Q1D5,1 days
same,TGI [% (day)],[5]; 1 μmol/kg ip 2Q1D5,no antitumor activity and no
same,TGD,[5]; 1 μmol/kg ip 2Q1D5,0 days
same,TGD,[5]; 2 μmol/kg ip 2Q1D5,6 days
same,TGI [% (day)],"[5]; 2 μmol/kg ip 2Q1D5, day 22, listed as Dox",45%
same,viability of MEF,[6]; 0.2 μg/ml,89%
same,toxic effect on MEF (in words),[6]; 20 μg/ml and 2 μg/ml,severe toxic effect
"COc1cccc2c1C(=O)c1c(O)c3c(c(O)c1C2=O)CC(O)(C(=O)CO)CC3OC1CC(NC(=O)C2CCCN2C(=O)CNC(=O)C(CC(C)C)NC(=O)C(C)NC(=O)CP(=O)(O)O)C(O)C(C)O1 (stereo not drawn) [PhAc-ALGP-Dox, PhAc-ALGP-doxorubicin]",leucopenic effect and body weight loss (in words),[1]; 35 μmol/kg ip 2Q1D5,No leucopenic effect and body weight loss
same,neutrophil count (in words),[2]; 21 days after administration at 40-times higher dose than free doxorubicin,unchanged netrophil count
same,relative tumor volume at day 21,"[2]; cumulative dose 1.20 mmol/kg ip via osmotic pump over 7 days, day 0 = 100%",105%
same,total white blood cells and neutrophils (in words),"[2]; cumulative dose 1.20 mmol/kg, versus control or doxorubicin-treated animals",No major changes
same,toxic effect (in words),[3]; all concentrations lower than 20 μg/ml,did not show any toxic effect
same,Dox heart AUC versus Dox administration (times lower),[4]; equimolar 86.2 μmol/kg iv,25 times
same,plasma AUC of Doxorubicin after Doxorubicin versus after PhAc-ALGP-Dox (times higher),[4]; equimolar 86.2 μmol/kg iv,63 times
same,drug plasma concentration eliminated in the first five minutes,[4]; i.v. bolus 86.2 μmol/kg,About 90%
same,"fraction hydrolysed into LGP-Dox, GP-Dox and Dox in plasma",[4]; i.v. bolus 86.2 μmol/kg,Less than 1%
same,time after which metabolites were no longer detected in plasma,[4]; i.v. bolus 86.2 μmol/kg,1 h
same,Heart AUC of PhAc-ALGP-Dox,[4]; one i.v. bolus 86.2 μmol/kg,23 pmol · h/mg protein
same,TGD,[5]; 25 μmol/kg ip 2Q1D5,5 days
same,TGI [% (day)],"[5]; 25 μmol/kg ip 2Q1D5, day 22",32 (22) %
same,TGD,[5]; 35 μmol/kg ip 2Q1D5,13 days
same,TGI [% (day)],"[5]; 35 μmol/kg ip 2Q1D5, day 22",60 (22) %
same,TGD,[5]; 50 μmol/kg ip 2Q1D5,17 days
same,TGI [% (day)],"[5]; 50 μmol/kg ip 2Q1D5, day 22",65% and 65 (22) %
same,IC50 on MEF,[6]; up to 20 μg/ml,no IC50 is reached

# Reference: patent publication US10076576B2, “Minimally toxic prodrugs” (priority 2012, dated 2018)
